Values of other authors as cited in patent US7485705B2, “Water-soluble tetrazolium compounds” (Dojindo Laboratories, priority 2003, dated 2009).

Cc1nc(-[n+]2nc(-c3ccccc3)nn2-c2ccccc2)sc1C.[Br-] [MTT, [3-(4,5-dimethylthiazol-2-yl)-2,5-diphenyltetrazolium bromide]]
water solubility of the formazan formed upon receiving hydrogen: insoluble in water

COc1cc(-c2ccc(-[n+]3nc(-c4ccccc4)nn3-c3ccc([N+](=O)[O-])cc3)c(OC)c2)ccc1-[n+]1nc(-c2ccccc2)nn1-c1ccc([N+](=O)[O-])cc1.[Cl-].[Cl-] [nitro-TB, 3,3′-[3,3′-dimethoxy-(1,1′-biphenyl)-4,4′-diyl]-bis-[2-(4-nitrophenyl)-5-2H tetrazolium chloride]]
water solubility of the formazan formed upon receiving hydrogen: insoluble in water
